Test results as given in patent US10994016B2, “Graphene oxide mediated cellular delivery of gadolinium-labeled molecules” (Northwestern University, priority 2015, dated 2021).
Like-named read-outs stand apart in the source and are kept apart here.

How the values were obtained:
HeLa cells [1] = assay: Cell MR imaging of Magnevist-labeled cells in agarose phantoms (6-well labeling, Gd content by ICP-MS, 7 T); type: cell-based; details: for Labeling achieved in the imaging study: after centrifugation; for Sensitivity for labeled cells on T1-weighted MRI: 7T
Experimental: HeLa cells were labeled by Magnevist with and without 150 nm GO co-incubation in 6-well plates. 2 plates seeded at 300,000 cells per well were needed to produce a sufficient number of cells for imaging. For the condition of GO co-incubation, 4500 μL of Magnevist-GO mixture was prepared at a concentration of 93.3 mM Magnevist and 27 μg/mL GO. The mixture was allowed to adsorb for at least 15 minutes. 375 μL of the Magnevist-GO mixture was added to 625 μL of media in each well to reach a final concentration of 35 mM Magnevist and 10 μg/mL GO. The cells were incubated with the mixture for […]. To harvest, cells were rinsed in-plate three times with 3000 μL PBS and trypsinized using 400 μL 0.25% TrypLE. After 5 minutes of incubation at 37° C., 600 μL of media was added to each well and mixed by a pipette to ensure that all cells were lifted into suspension. After combining all the wells into a 12 mL cell suspension, 3 aliquots of 25 μL each were obtained for cell counting by Guava. 175 μL of Guava ViaCount reagent was used for dilution. Additionally, 200 μL of the cell suspension was transferred to a 1.5-mL microcentrifuge tube, centrifuged at 1000 RPM for 5 min (Thermo Scientific, Model Legend Micro 21R), and re-suspended in 200 μL media to wash the cells. From the washed cell suspension, two aliquots of 25 μL each were used for cell counting by Guava and two aliquots of 25 μL each were used for Gd content analysis by ICP-MS. For the condition without GO co-incubation, the same procedures were followed except GO was replaced by Milli-Q water.
To create the cellular phantoms in agarose, a 1% media-agarose was prepared by mixing media and 2% low melting-point agarose (Life Technologies, Carlsbad, Calif.) in equal parts. At 7 T, the media-agrose has a T1 of 2952±152 ms and a T2 of 96±1 ms. In a 4 mL 15×45 mm glass vial, 2 mL of media-agarose was gelled at room temperature around a 5 mm OD NMR tube that was later removed to create a cylindrical bore. To fill the bore, the suspension of labeled cells was centrifuged at 1000 RPM for 5 minutes. After removing the supernatant, the cell pellet was re-suspended in media-agarose and further diluted to densities of 10,000, 5,000, 2,000, 500, and 100 cells/μL. 300 μL of each cell suspension was used to fill the bores in the 4 mL vials. After filling, the vials were cooled to 4° C. for 20 minutes to solidify the suspension. Approximately 3 mL of media was added on top of the media-agarose to completely fill the vial.
T1- and T2-weighted imaging were performed on a Bruker Pharmscan 7.05 T imaging spectrometer fitted with shielded gradient coils and a RF RES 300 1H 089/023 quadrature transceiver volume coil at 25° C. (Bruker BioSpin, Billerica, Mass.). Imaging was performed using a Rapid Acquisition with Refocused Echoes (RARE) pulse sequence. For T1-weighted imaging, the imaging parameters were TR=200 ms, TE=11.7 ms, NEX=1, FOV=21×21 mm^2, slice thickness=2 mm, and matrix size=256×256. For T2-weighted HDR, the imaging parameters were TR=5000 ms, TE=100 ms, NEX=1, FOV=15×15 mm^2, slice thickness=2 mm, and matrix size=256×256. The signal intensities of the acquired images were normalized such that the blank media-agarose has the same intensity across all images. Image processing was performed using ImageJ (NIH, Bethesda, Md.). T1 and T2-weighted images were processed separately.

HeLa cells [2] = assay: 24 hour cytotoxicity assay (Guava ViaCount); type: cell-based; details: for IC50: read-out: IC50 (viability)
Experimental: FIG. 11. 24 hour cytotoxicity assay using HeLa cells at increasing Magnevist and GO concentrations. […] The maximum GO dose required for cellular delivery enhancement is 20 μg/mL, or an order of magnitude below the highest test dose. The 150 nm GO was used for the study.
FIGS. 12A-B. Cytotoxicity of Magnevist. A) Viability of HeLa cells at increasing Magnevist concentration as measured by the Guava ViaCount Assay. Analysis includes floating cells at the end of the 24-hr incubation period. The fitted IC50 was 80 mM. […] Fitting was performed using GraphPad Prism software. All incubations were performed for 24 hours. Error bars show SD.
Cell counting was conducted using a Guava EasyCyte Mini Personal Cell Analyzer (EMD Millipore, Billerica, Mass.). After cell harvesting, an aliquot (50 μL) of the cell suspensions was mixed with Guava ViaCount reagent (150 μL) and allowed to stain at room temperature for at least 5 minutes. The dilution factor of 4 was determined based upon optimum machine performance (20-150 cells/μL). After vortexing for 10 sec, stained cells were counted using a Guava EasyCyte Mini Personal Cell Analyzer (PCA) using the ViaCount software module. For each sample, 1000 events were acquired. Gating of live/dead and cell/debris classifications were performed manually by the operator.

What does the source list for “Diethylenetriaminepentaacetic acid gadolinium(III) dihydrogen salt hydrate [Molecule 11]”?
Improvement of labeling with GO over Magnevist alone (HeLa cells [1]; 35 mM Magnevist, 10 μg/mL GO): 57%; Cellular Gd(III) payload relative to Gd(III)-DNA gold nanoparticles, Gd(III)-labeled polymer-liposomes, gadonanotubes and gadofullerenols (HeLa cells [1]; GO co-incubation): 30-50 fold; Increase of MR sensitivity for labeled cells compared to Magnevist alone (HeLa cells [1]; GO co-incubation): ~10 fold; Labeling achieved in the imaging study (HeLa cells [1]; Magnevist alone (35 mM), without GO): 30 fmol Gd/cell; Enhancement by GO (HeLa cells [1]; imaging study, before centrifugation): 2.2 ×; Labeling achieved in the imaging study (HeLa cells [1]; with GO co-incubation (10 μg/mL), 35 mM Magnevist): 47 fmol Gd/cell; Sensitivity for labeled cells on T1-weighted MRI (HeLa cells [1]; with GO co-incubation (150 nm GO)): 500 cells/μL; Loading in the imaging study (HeLa cells [1]; with GO, before centrifugation): 153 fmol/cell; Sensitivity for labeled cells on T1-weighted MRI (HeLa cells [1]; without GO): 5000 cells/μL; Loading in the imaging study (HeLa cells [1]; without GO, before centrifugation): 69 fmol/cell; IC50 (HeLa cells [2]; 24 h, after in-plate washing by PBS, floating cells not included): 99 mM; IC50 (HeLa cells [2]; 24 h, analysis includes floating cells): 80 mM; Cytotoxicity (HeLa cells [2]; 24 h, up to 35 mM Magnevist and 250 μg/mL GO (150 nm GO)): No significant cytotoxicity; Cytotoxicity (HeLa cells [2]; Magnevist increased to 70 mM, with GO): synergistic cytotoxicity
